Test systems include DLD-1 colon; DMS 114 small cell lung; DMS 273 small cell lung; KM20L2 colon; LXFL 529 NSCLC; SNB-78 CNS; XF 498 CNS; BT-549 breast.
Assay in all cases: NCI anticancer screen, dose series, 48 h

Values joined by “and” are separate entries in the source; they are usually repeats but may differ in a detail not shown here. Identical values can stand only once.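 Growth conditions: 96-well plates. Treatment: test compound, 48 hours, 5 concentrations. Analysis: linear interpolation between bracketing concentrations; unreached endpoints set to highest concentration. At the GI50, growth is halved. TGI: total growth inhibition.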 Where a SMILES comes first, the peptide text is derived from it. [ ]: non-standard residue; d: D form. Ac5c = NC1(C(=O)O)CCCC1 Where only a bound is given, the exact number is not on record here.

Regarding `O=[N+]([O-])c1cccc(C2N3CCCCC3[C@@H]3c4[nH]c5ccccc5c4CCN23)c1` (stereo partly drawn), the TGI amounted to 29.2 µM in the test with DLD-1 colon; 22.2 µM in the test on DMS 114 small cell lung; 26 µM in the test on DMS 273 small cell lung; 22.9 µM in the test with KM20L2 colon; 60.8 µM in the test on LXFL 529 NSCLC; 26.1 µM with SNB-78 CNS. The compound further gave a TGI in the test on XF 498 CNS of 27 µM.
In the case of `CN1CCN(CCCN)CC1`, the TGI in the test with BT-549 breast is more than 100 µM.
For the compound `CC[C@H](NC(=O)[C@H](C)NC)C(=O)N1C[C@@H](O)C[C@H]1Cc1c(-c2[nH]c3cc(F)ccc3c2C[C@@H]2C[C@H](O)CN2C(=O)[C@H](CC)NC(=O)[C@H](C)NC)[nH]c2cc(F)ccc12`, in the test with BT-549 breast, the GI50 is 0.569 µM and the TGI is more than 41.8 µM.
For `CO[C@@H]1/C=C\C=C(/C)C(=O)NC2=CC(=O)C(NCCN(C)C)=C(C[C@@H](C)C[C@@H](OC)[C@@H](O)[C@H](C)/C=C(\C)[C@H]1OC(N)=O)C2=O`, in the test on BT-549 breast, the GI50 was 0.88 µM and 1.53 µM; the TGI is 14.6 µM and 21.1 µM.
With `C=C1C(=O)O[C@H]2[C@H]1CC/C(CNC(=O)c1cc3cc(OC)ccc3[nH]1)=C\CC[C@@]1(C)O[C@@H]21`, in the test on BT-549 breast, the GI50 is 1.44 µM and the TGI is 3.42 µM.
In the case of `CC(=O)OCC1OC(N2C(=O)C(=O)c3cc(C)ccc32)C(OC(C)=O)C(OC(C)=O)C1OC(C)=O` (stereo not drawn), the TGI with DLD-1 colon, with DMS 114 small cell lung, with DMS 273 small cell lung, with KM20L2 colon, in the test with LXFL 529 NSCLC and with SNB-78 CNS was more than 100 µM in each case.
`COc1ccc(N2C(=O)CC(Cl)C2=O)cc1` (stereo not drawn): in the test on BT-549 breast, the TGI was more than 100 µM.
Take `COc1cc(OC)cc(C2CC(=O)Nc3c2c(C)nn3-c2nc3ccccc3[nH]2)c1` (stereo not drawn): in the test on BT-549 breast, the GI50 is 2.46 µM and the TGI worked out at 7.86 µM.
For the compound `Cc1ccccc1NC(=O)N/C(N)=N/c1nc(-c2cccc([N+](=O)[O-])c2)cs1`, in the test with BT-549 breast, the GI50 was 2.16 µM and the TGI came to 5.37 µM.
On to `Nc1c(C(=O)c2ccc(Cl)cc2)sc(Nc2ccccc2)c1-c1nc2ccccc2s1`, for which, in the test on BT-549 breast, the GI50 is 2.29 µM and the TGI was determined as 19.5 µM.
In turn, `Cn1ccnc1CC(C)(O)c1ccccc1` (stereo not drawn) displayed a TGI with BT-549 breast of more than 100 µM.
Take `CC(=O)N[C@H]1C=C[C@@H]2/C=C(C)/C=C/[C@@H](C)[C@H]([C@H](C)[C@H](O)[C@@H](C)NC(C)=O)OC(=O)/C=C/C=C(C)\C=C\[C@]2(C)C1`: in the test on BT-549 breast, the GI50 was 0.023 µM and 0.0045 µM; the TGI is 4.65 µM and > 45 µM.
Turning to `O=C(Nc1cc(Cl)c(Cl)cc1Cl)C(=O)C1C=CCS1(=O)=O` (stereo not drawn), the TGI with DLD-1 colon, in the test with DMS 114 small cell lung, in the test on DMS 273 small cell lung, with KM20L2 colon, in the test on LXFL 529 NSCLC and in the test with SNB-78 CNS was more than 100 µM in each case.
`COc1cc(Nc2nccc(Nc3ccc4c(C)[nH]nc4c3)n2)cc(OC)c1OC`: in the test on BT-549 breast, the GI50 was 3.3 µM and the TGI was 11 µM.
In turn, `CCC1(CC)C(=O)OC(=O)C1(CC)CC` yielded a TGI in the test on BT-549 breast of more than 100 µM.
The same measure, in the same setting: then `COC(=O)CCc1cc(OC)c2c(c1)C(C(=O)OC)C(c1ccc(OC)c(OC)c1)O2` (stereo not drawn), with more than 100 µM.
Take `O=c1c(Oc2ccc(F)cc2F)cc2cnc(NC3CCOCC3)nc2n1C1CCS(=O)(=O)CC1`: in the test on BT-549 breast, the GI50 was more than 25 µM and the TGI is more than 25 µM.
For the compound `O=C(/C=C/c1ccc(F)cc1)c1ccc(Cl)cc1Cl`, in the test on BT-549 breast, the GI50 is 27.2 µM and the TGI worked out at 71.6 µM.
Taken in the same sequence, the figures for `COc1ccc(CN(C)c2ccc(CO)c(Cl)c2)cc1` were 19.8 µM and 73.7 µM.
With `COc1ccc(/C=N\NC(=O)CN2CCN(c3cc4c(cc3F)c(=O)c(C(=O)N/N=C/c3ccc(OC)c(OC)c3)cn4C3CC3)CC2)cc1OC`, in the test on BT-549 breast, the GI50 is 1.78 µM and the TGI was determined as 3.89 µM.
Take `COc1cc(/C=C(\C#N)C(=O)c2ccccc2)ccc1OCc1ccccc1`: the TGI with DMS 114 small cell lung, with KM20L2 colon, in the test with SNB-78 CNS and in the test on XF 498 CNS was more than 100 µM in each case.
Regarding `O=c1ccn(C2OC(CO)C(O)C2F)c(=O)[nH]1` (stereo not drawn), in the test with BT-549 breast, the GI50 is more than 85.9 µM and the TGI is more than 100 µM.
Consider `CC(O)c1cccc(NCc2c3ccccc3c(=O)n3c2oc2ccccc23)c1` (stereo not drawn), for which, in the test on BT-549 breast, the GI50 was 3.95 µM and the TGI was 14.7 µM.
Turning to `CCOC(=O)C(Cc1c[nH]c2ccc(N)cc12)(NC(C)=O)C(=O)OCC`, in the test with BT-549 breast, the GI50 is 588 µM and the TGI is more than 1000 µM.
With `COc1ccc(NC(=O)C(=O)C(C(=O)c2ccccc2)C2OC(=O)c3ccccc32)c([N+](=O)[O-])c1` (stereo not drawn), the TGI in the test on DLD-1 colon, in the test on DMS 114 small cell lung, in the test on DMS 273 small cell lung, in the test on KM20L2 colon, in the test on LXFL 529 NSCLC and with SNB-78 CNS was more than 100 µM each time. In addition, in the test on XF 498 CNS, the TGI is more than 100 µM.
As for `O=C1c2ccccc2-c2c1c1ccccc1c(=O)n2CCCNCCCn1ccnc1`, in the test with BT-549 breast, the GI50 was 1.07 µM and the TGI amounted to 7.11 µM.
On the same counts, the results for `O=C1Nc2ccc(C(=O)c3ccco3)cc2/C1=C/c1cc(Cl)c(O)c(Cl)c1` are 3.54 µM and 10.5 µM.
Take `CCNC(=O)CCN(C(=O)O)S(=O)(=O)c1ccc(NC(=O)c2ccccc2)cc1`: the TGI in the test on DLD-1 colon is more than 100 µM; with DMS 114 small cell lung it was more than 100 µM; in the test on DMS 273 small cell lung, 41.3 µM; in the test with KM20L2 colon, more than 100 µM; with LXFL 529 NSCLC, more than 100 µM; with SNB-78 CNS, more than 100 µM. Moreover, the TGI in the test on XF 498 CNS was more than 100 µM.
Regarding `COc1cc(OC)c(/C=C/S(=O)(=O)Cc2cnc(OC)c(N)c2)c(OC)c1`, in the test on BT-549 breast, the GI50 is less than 0.0256 µM and the TGI was more than 74.6 µM.
On to `CCCCc1c2c(nc3c1CCC/C3=C\c1ccccc1)C(=O)CCC2`, for which the TGI in the test on DMS 114 small cell lung is 41.7 µM; in the test on DMS 273 small cell lung it was 65.6 µM; in the test on KM20L2 colon, 41.7 µM; in the test with LXFL 529 NSCLC, more than 100 µM; in the test with SNB-78 CNS, 52.5 µM; in the test on XF 498 CNS it was 33.2 µM.
As for `CC(=O)Nc1ccc(C(=O)NN2C(=O)C(Cl)C2c2ccc(Cl)cc2)cc1` (stereo not drawn), the TGI in the test on BT-549 breast, in the test on DLD-1 colon and in the test with LXFL 529 NSCLC was more than 100 µM in each case.
`NC1(C(=O)NC2(C(=O)O)CCCC2)CCCC1` (H-[Ac5c]-[Ac5c]-OH): the TGI with BT-549 breast was more than 100 µM.

The record behind these values is PubChem BioAssay (NCI).
